Data taken from patent publication US20070213291A1, “Therapeutically useful synthetic oligonucleotides” (priority 1999, published 2007).
Values joined by “and” are separate entries in the source; they are usually repeats but may differ in a detail not shown here. Equal entries are not always repeated.

Experiments:
Format in all cases: cell-based
[1] = test system: THP-1 human acute monocytic leukemia cells; assay: Cytokine production by THP-1 cells (ELISA); settings: THP-1, 1×10^6 cells, 100 μg/ml, 48 h; for ↑ IL-12 (fold increase treated vs control cells): p70 complex and free p40
Summary of the method: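 Read-out is fold increase in supernatant cytokine versus control cells, measured by ELISA (IL-12 ELISA counts p70 complex plus free p40). Unless noted, sequences were tested at 100 μg/ml on 1×10^6 cells, incubated 48 h, 37° C, 5% CO2.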

[2] = test system: D-17 canine osteosarcoma cells; assay: Inhibition of D-17 cell proliferation (MTT); settings: 100 μg/ml, 48 h, 5×10^5 cells/ml
Summary of the method: (§1)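 D-17 osteosarcoma and CF-51 mammary cancer cells (5×10^5 cells/ml) incubated 48 h at 37° C, 5% CO2, with 100 μg/ml of 6-33 base GT-sequences or a 15 base ACG sequence versus untreated control. Proliferation by MTT reduction read at 570 nm.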

[3] = test system: CF-51 canine mammary gland cancer cells; assay: Inhibition of CF-51 cell proliferation (MTT); settings: 100 μg/ml, 48 h, 5×10^5 cells/ml
Summary of the method: as §1

[4] = test system: EL-4 murine T lymphoma cells; assay: Inhibition of EL-4 cell proliferation (MTT); settings: 100 μg/ml, 48 h
Summary of the method: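 EL-4 cells at 2.5×10^5 cells/ml were exposed for 48 h at 37° C, 5% CO2, to 100 μg/ml of 2- to 45-base sequences of A, C, G and T, against untreated controls. Proliferation was read by MTT reduction at 570 nm.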

[5] = test system: human peripheral blood mononuclear cells; assay: Cytokine production by human PBMC (ELISA); settings: PBMC of 7 healthy humans, 100 μg/ml, 48 h
Summary of the method: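 PBMC from 7 healthy donors, Ficoll-isolated; 1×10^6 cells incubated with 100 μg/ml oligonucleotide sequence for 48 h at 37 °C, 5% CO2. IL-1beta, IL-6, IL-10, IL-12 (p70 plus free p40) and TNF-alpha measured by ELISA in supernatant, expressed as fold increase over control cells.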

[6] = test system: LNCaP human prostate cancer cells; assay: Inhibition of LNCaP cell proliferation (MTT); settings: 100 μg/ml, 48 h, 5×10^5 cells/ml
Summary of the method: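 Cells (2.5×10^5 or 5×10^5 cells/ml) exposed to 100 μg/ml of 2–45 base A/C/G/T sequences, including 6-base GT sequences, versus untreated control, 48 h at 37 °C, 5% CO2. Proliferation read by MTT reduction at 570 nm.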

[7] = test system: MCF-7 human breast cancer cells; assay: Inhibition of MCF-7 cell proliferation (MTT); settings: for % INHIBITION of MCF-7 human breast cancer cell proliferation: 100 μg/ml, 48 h, 5×10^5 cells/ml
Summary of the method: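 Cells at 2.5×10^5 cells/ml (GT 3- and 6-base series at 5×10^5 cells/ml) treated with 100 μg/ml of 2-45-base oligonucleotide sequences versus untreated control for 48 h at 37 °C, 5% CO2. Proliferation read by MTT reduction at 570 nm.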

[8] = test system: Jurkat human leukemia T cells; assay: NuMA release into supernatant (ELISA); settings: for % NuMA released (treated vs untreated cells): 50 μM sequence
Summary of the method: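 Jurkat T cells (1×10^6/ml) exposed to GT-containing oligonucleotide sequences, at 50 μM in some experiments, for 24 h in some experiments. NuMA released into the supernatant quantified by commercial ELISA.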

[9] = test system: PC-3 human prostate cancer cells; assay: Inhibition of PC-3 cell proliferation (MTT); settings: 100 μg/ml, 48 h, 5×10^5 cells/ml
Summary of the method: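 PC-3 cells (5×10^5 cells/ml) exposed 48 h at 37 °C to 3- and 6-base GT oligonucleotide sequences at 100 μg/ml versus untreated control. Proliferation read by MTT reduction at 570 nm.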

## GGGTGG [SEQ ID NO:25]
[1]
  ↑ IL-6 (fold increase treated vs control cells): 3.1x
  ↑ IL-12 (fold increase treated vs control cells): 2.3x and 2.0x
[1]; listed as GoGoGoToGoGo
  ↑ IL-12 (fold increase treated vs control cells): 2.0 x
[2]
  % INHIBITION of D-17 canine osteosarcoma cell proliferation: 18%
[3]
  % INHIBITION of CF-51 canine mammary gland cancer cell proliferation: 14%
[4]
  % INHIBITION of EL-4 murine T lymphoma cell proliferation: 4% and 1%
[5]
  IL-1 beta fold increase: mean +/− SD: 1.0 +/− 0.1 fold increase
  IL-6 fold increase: mean +/− SD: 20.9 +/− 18.0 fold increase
  IL-10 fold increase: mean +/− SD: 11.6 +/− 1.2 fold increase
  IL-12 fold increase: mean +/− SD: 13.2 +/− 11.5 fold increase
[6]
  % INHIBITION of LNCaP human prostate cancer cell proliferation: 18%
[7]
  % INHIBITION of MCF-7 human breast cancer cell proliferation: 41%
[7]; 5-fluorouracil 0.1 μg/ml, alone or with sequence at 1.0 μg/ml
  % INHIBITION of MCF-7 proliferation, 5-Fluorouracil 0.1 μg/ml: 24%
[7]; 5-fluorouracil 1.0 μg/ml, alone or with sequence at 1.0 μg/ml
  % INHIBITION of MCF-7 proliferation, 5-Fluorouracil 1.0 μg/ml: 36%
[7]; 5-fluorouracil 10.0 μg/ml, alone or with sequence at 1.0 μg/ml
  % INHIBITION of MCF-7 proliferation, 5-Fluorouracil 10.0 μg/ml: 33%
[7]; sequence 1.0 μg/ml, 0.1 μg/ml 5-fluorouracil
  potentiation of antineoplastic effect of 5-fluorouracil on MCF-7 cell proliferation: potentiated
[7]; sequence 1.0 μg/ml, 0.1 μg/ml tamoxifen
  potentiation of antineoplastic effect of tamoxifen on MCF-7 cell proliferation: potentiated
[7]; sequence at 1.0 μg/ml, 5-fluorouracil 0.0 μg/ml
  % INHIBITION of MCF-7 proliferation, 5-Fluorouracil 0.0 μg/ml: 6%
[7]; sequence at 1.0 μg/ml, tamoxifen 0.0 μg/ml
  % INHIBITION of MCF-7 proliferation, Tamoxifen 0.0 μg/ml: 6%
[7]; tamoxifen 0.1 μg/ml, alone or with sequence at 1.0 μg/ml
  % INHIBITION of MCF-7 proliferation, Tamoxifen 0.1 μg/ml: 21%
[7]; tamoxifen 1.0 μg/ml, alone or with sequence at 1.0 μg/ml
  % INHIBITION of MCF-7 proliferation, Tamoxifen 1.0 μg/ml: 24%
[7]; tamoxifen 10.0 μg/ml, alone or with sequence at 1.0 μg/ml
  % INHIBITION of MCF-7 proliferation, Tamoxifen 10.0 μg/ml: 31%
[8]; Jurkat 1×10^6/ml
  % NUMA RELEASED: 269%
[8]; Jurkat
  % NuMA released (treated vs untreated cells): 69%
[8]; Jurkat, 24 h, sequences heated 10 minutes at 65° C.
  % NuMA released (untreated vs treated cells): 69%
[9]
  % INHIBITION of PC-3 human prostate cancer cell proliferation: 38%

## GTGTGT [SEQ ID NO:10]
[1]
  ↑ IL-6 (fold increase treated vs control cells): 5.0x
  ↑ IL-12 (fold increase treated vs control cells): 2.2x
[2]
  % INHIBITION of D-17 canine osteosarcoma cell proliferation: 15%
[3]
  % INHIBITION of CF-51 canine mammary gland cancer cell proliferation: 15%
[4]
  % INHIBITION of EL-4 murine T lymphoma cell proliferation: −2%
[5]
  IL-1 beta fold increase: mean +/− SD: 2.0 +/− 1.6 fold increase
  IL-6 fold increase: mean +/− SD: 9.8 +/− 14.2 fold increase
  IL-10 fold increase: mean +/− SD: 1.0 +/− 0.1 fold increase
  IL-12 fold increase: mean +/− SD: 4.0 +/− 6.3 fold increase
[6]
  % INHIBITION of LNCaP human prostate cancer cell proliferation: −4%
[7]
  % INHIBITION of MCF-7 human breast cancer cell proliferation: 31%
[8]; Jurkat
  % NuMA released (treated vs untreated cells): 90%
[9]
  % INHIBITION of PC-3 human prostate cancer cell proliferation: 37%

## TTGTTT [SEQ ID NO:26]
[1]
  ↑ IL-6 (fold increase treated vs control cells): 5.3 x
  ↑ IL-12 (fold increase treated vs control cells): 3.5x and 3.8x
[5]
  IL-1 beta fold increase: mean +/− SD: 1.5 +/− 0.9 fold increase
  IL-6 fold increase: mean +/− SD: 5.8 +/− 8.0 fold increase
  IL-10 fold increase: mean +/− SD: 1.0 +/− 0.1 fold increase
  IL-12 fold increase: mean +/− SD: 1.6 +/− 1.3 fold increase
[6]
  % INHIBITION of LNCaP human prostate cancer cell proliferation: 22%
[7]
  % INHIBITION of MCF-7 human breast cancer cell proliferation: 20%
[8]; Jurkat
  % NuMA released (treated vs untreated cells): 23%
[9]
  % INHIBITION of PC-3 human prostate cancer cell proliferation: 18%
